From patent US5635197A, “Treatment and prevention of prostatic cancer metastasis” (priority 1995, dated 1997)

What follows are compounds tested against T1, Human Type I Steroid 5α-Reductase (Homo sapiens, UniProt P18405) (assay: Human Type I steroid 5α-reductase homogenate assay (conversion of [3H]-testosterone to [3H]-5α-dihydrotestosterone)). Conditions: 0.3 μM concentration; compared to control reaction mixtures; enzyme from human scalp, pH 7.5, 25°, 180 min.
T1 construct: Preparation of Type I 5α-Reductase from Human Scalp; from tissue; host or cells: human scalp punch biopsies from hair transplant procedures; 100,000 x g pellet of skin homogenate
T1 sequence (P18405 1-259): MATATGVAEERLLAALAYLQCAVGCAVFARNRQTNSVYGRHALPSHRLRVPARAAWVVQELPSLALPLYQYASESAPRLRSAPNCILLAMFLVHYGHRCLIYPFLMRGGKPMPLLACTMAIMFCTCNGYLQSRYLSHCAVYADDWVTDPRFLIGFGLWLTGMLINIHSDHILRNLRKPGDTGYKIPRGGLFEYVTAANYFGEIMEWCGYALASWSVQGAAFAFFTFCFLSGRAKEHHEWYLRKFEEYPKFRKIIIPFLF
Assay type: biochemical
Excerpt: Methodology of Human Type I Steroid 5α-Reductase Assays
Approximately 60-75 punches from one surgical procedure were used to generate an enzyme preparation. The subcutaneous tissue was cut away and discarded. The skin was frozen with liquid nitrogen and pulverized to powder. […] The homogenization procedure consisted of four 15 second pulses. Connective tissue was cleared from the probe with forceps between pulses. […] The pellet was resuspended by homogenization with a Dounce homogenizer using the same buffer solution. […] Aliquots of the enzyme preparation were stored at -80° until use.
The reaction was initiated by the addition of 0.5 mg of Type I 5α-reductase. The reaction mixture was incubated at 25° for 180 min, and terminated by the addition of 1 mL ice-cold stopping solution. […] The samples were prepared for high performance liquid chromatography by solid phase extraction. […] The reaction mixtures were then applied to the columns. The columns were subsequently washed with 5 mL of acetone:water (1:4), followed by 0.3 mL of methanol. The samples were then eluted with 3 mL of methanol and collected in 20 mL scintillation vials. Three mL of water was then added to each scintillation vial. […] The column temperature was maintained at 35° and the flow rate was 1.5 mL/min.

percent inhibition of Type I 5AR [%]	Compound
90	(+)-(4aR)-(10bR)-4-methyl-8-benzyloxycarbonyl-10b-methyl-1,2,3,4,4a,5,6,10b-octahydrobenzo[f]quinolin-3-one [Example 144]
13	(+)-(4aR)-(10bR)-4-methyl-8-(3-t-butylcarboxamidophenyl)-10b-methyl-1,2,3,4,4a,5,6,10b-octahydrobenzo[f]quinolin-3-one [Example 34]
24	(+)-(4aR)-(10bR)-4-methyl-8-(3-[1-benzyl-4-piperidinylcarboxamido]phenyl)-10b-methyl-1,2,3,4,4a,5,6,10b-octahydrobenzo[f]quinolin-3-one [Example 209]
86	CN1C(=O)CC[C@]2(C)c3ccc(-c4ccc(-c5ccc(NC(=O)C(C)(C)C)s5)cc4)cc3CC[C@@H]12 [Example 222, (+)-(4aR)-(10bR)-4-methyl-8-(4-[(2-t-butylcarbonylamino]-5-thienyl]phenyl)-10b-methyl-1,2,3,4,4a,5,6,10b-octahydrobenzo[f]quinolin-3-one]
